The values that follow come from patent US20250017914A1, “6-AZA-QUINOLINE DERIVATIVES AND RELATED USES” (Black Diamond Therapeutics, Inc., priority 2021, published 2025).

The structures appear in SMILES notation.

The target of this assay is T1, BaF3 BRAF-KIAA1549 fusion cells (Homo sapiens, UniProt P15056).
T1 construct: The BRAF-KIAA1549 fusion mutant was subcloned into pMXs-IRES-Blasticidin (RTV-016, Cell Biolabs, San Diego, CA); No tag given; Q9HCM3 (UPF0606 protein KIAA1549)
T1 sequence (P15056 whole entry, change not shown, the tested form may be a part): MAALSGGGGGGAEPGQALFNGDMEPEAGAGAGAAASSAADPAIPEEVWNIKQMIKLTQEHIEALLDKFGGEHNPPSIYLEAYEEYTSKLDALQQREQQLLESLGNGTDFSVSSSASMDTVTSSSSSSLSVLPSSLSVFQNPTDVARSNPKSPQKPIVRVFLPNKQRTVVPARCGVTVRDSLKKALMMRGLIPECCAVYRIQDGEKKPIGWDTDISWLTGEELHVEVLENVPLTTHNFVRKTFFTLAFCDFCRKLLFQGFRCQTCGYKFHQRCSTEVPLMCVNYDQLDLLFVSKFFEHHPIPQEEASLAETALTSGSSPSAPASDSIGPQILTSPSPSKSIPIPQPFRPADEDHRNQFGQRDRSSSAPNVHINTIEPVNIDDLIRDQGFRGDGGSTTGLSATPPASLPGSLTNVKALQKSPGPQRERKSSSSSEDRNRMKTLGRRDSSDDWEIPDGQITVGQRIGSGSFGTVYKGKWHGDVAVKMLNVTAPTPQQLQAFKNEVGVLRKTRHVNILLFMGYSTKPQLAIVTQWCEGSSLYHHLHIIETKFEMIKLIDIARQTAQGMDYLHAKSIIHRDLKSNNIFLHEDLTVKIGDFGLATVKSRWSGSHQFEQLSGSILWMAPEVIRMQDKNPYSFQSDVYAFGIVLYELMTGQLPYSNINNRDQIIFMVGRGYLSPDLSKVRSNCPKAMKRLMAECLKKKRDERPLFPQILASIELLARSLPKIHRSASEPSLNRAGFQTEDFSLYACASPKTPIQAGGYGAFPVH
Nature of the assay: BaF3 BRAF-KIAA1549 fusion cell proliferation assay (CellTiterGlo, 96 hours). The format is cell-based. Conditions: Table A2. Put shortly:
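BaF3 cells retrovirally transduced with BRAF-KIAA1549 fusion and blasticidin-selected were plated at 7×10^4 c/well in RPMI, 10% heat-inactivated FBS, 1% L-glutamine, and exposed to compound for 96 hours. Growth was read as ATP content by CellTiterGlo luminescence. IC50 was fitted by Levenberg-Marquardt, normalised to DMSO-treated cells.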
A general note: In ATP-based viability assays light output follows the ATP content of the culture.
What is called GI50 is the concentration giving 50% growth inhibition. A higher GI50 goes with less potent growth inhibition. Compound `CNc1ncc2cc(-c3cc(NC(=O)c4ccnc(C5(F)CC5)c4)ccc3C)cnc2c1Cl` [Compound 269, N-[3-[8-chloro-7-(methylamino)-1,6-naphthyridin-3-yl]-4-methyl-phenyl]-2-(1-fluorocyclopropyl)pyridine-4-carboxamide] had a GI50 of 100 to 500 nM.

Turning to `CNc1ncc2cc(-c3cc(NC(=O)c4ccnc(C(C)(C)C#N)c4)cnc3C)cnc2c1Cl` [Compound 270, N-[5-[8-chloro-7-(methylamino)-1,6-naphthyridin-3-yl]-6-methyl-3-pyridyl]-2-(1-cyano-1-methyl-ethyl)pyridine-4-carboxamide], the GI50 is no less than 500 nM.

`CNc1ncc2cc(-c3cc(NC(=O)c4ccnc(C5(F)CC5)c4)ccc3C)cnc2c1C#N` [Compound 271, N-[3-[8-cyano-7-(methylamino)-1,6-naphthyridin-3-yl]-4-methyl-phenyl]-2-(1-fluorocyclopropyl)pyridine-4-carboxamide] showed a GI50 of 20 to 100 nM.

Take `CNc1cc2c(C#N)cc(-c3cc(NC(=O)c4ccnc(C5(F)CC5)c4)ccc3C)cc2cn1` [Compound 272, N-(3-(5-cyano-3-(methylamino)isoquinolin-7-yl)-4-methylphenyl)-2-(1-fluorocyclopropyl)isonicotinamide]: the GI50 fell in the range of 20 to 100 nM.

The compound `CNc1cc2c(C#N)cc(-c3cc(NC(=O)c4ccnc(C(F)(F)F)c4)ccc3C)cc2cn1` [Compound 273, N-(3-(5-cyano-3-(methylamino)isoquinolin-7-yl)-4-methylphenyl)-2-(trifluoromethyl)isonicotinamide] came in with a GI50 of 100 to 500 nM.

Compound `Cc1ncc(NC(=O)c2cc(C(F)(F)F)ccn2)cc1-c1ccc2c3c(ncc2c1)NC(=O)C3` [Compound 274, N-(6-methyl-5-(2-oxo-2,3-dihydro-1H-pyrrolo[2,3-c]isoquinolin-7-yl)pyridin-3-yl)-4-(trifluoromethyl)picolinamide] gave a GI50 of less than 20 nM.

Turning to `Cc1ccc(NC(=O)c2cc(C(C)(C)C#N)ccn2)cc1-c1ccc2c3c(ncc2c1)NC(=O)C3` [Compound 275, 4-(2-cyanopropan-2-yl)-N-(4-methyl-3-(2-oxo-2,3-dihydro-1H-pyrrolo[2,3-c]isoquinolin-7-yl)phenyl)picolinamide], the GI50 fell in the range of 20 to 100 nM.

Regarding `Cc1ccc(NC(=O)c2ccnc(C(C)(C)F)c2)cc1-c1ccc2c3c(ncc2c1)NC(=O)C3` [Compound 276, 2-(2-fluoropropan-2-yl)-N-(4-methyl-3-(2-oxo-2,3-dihydro-1H-pyrrolo[2,3-c]isoquinolin-7-yl)phenyl)isonicotinamide], the GI50 is less than 20 nM.
